Laboratory results published in paper PMC4536076, “Chemical Library Screening and Structure-Function Relationship Studies Identify Bisacodyl as a Potent and Selective Cytotoxic Agent Towards Quiescent Human Glioblastoma Tumor Stem-Like Cells” (PLoS ONE, 2015).
Structures can show the parent of a compound that is named as a salt.

What was measured:
[1] = system: quiescent TG1 GSCs; details: 50 μM; for Activity on quiescent TG1 GSCs (hit compounds reducing ATP levels): primary screen, 24 h
Method: (§1) Proliferating or quiescent TG1 GSCs were seeded (30 000 and 40 000 viable cells/well, respectively) into 96-well opaque bottom plates (Greiner) with the Biomek FX robot (Beckman Coulter). Each compound from the Prestwick Library was then added (final concentration: 50 μM; 1% DMSO). Each molecule was tested once. Negative control wells (12/96 per assay plate) contained cells treated with 1% DMSO (final concentration) and positive control wells (4/96 per assay plate) contained cells treated with the fungal toxin ophiobolin A (Sigma Aldrich) at 50 μM with 1% DMSO. […] Luminescence in each well was measured with the Victor3 plate reader (PerkinElmer).
(§2) Relative ATP levels in each well were determined by calculating the percentage of luminescent signal in the well with respect to the average signal measured in negative control wells.
(§3) Primary screen hits were further tested in duplicate, at two concentrations (50 and 5 μM) on proliferating and quiescent TG1 GSCs. Cell plating and treatment with compounds were as for the primary screen. Hit selection/confirmation criteria for quiescent cells were as described above.

[2] = system: proliferating TG1 GSCs; details: 50 μM; for Activity on proliferating TG1 GSCs (hit compounds reducing ATP levels): primary screen, 24 h
Method: as §1, §2, §3

[3] = system: proliferating TG1 GSCs; experiment: ATP-Glo dose-response, proliferating TG1 GSCs; assay type: cell-based, human; details: SAR study, ATP-Glo cell survival assay, 24 h, triplicate; read-out: Proliferating TG1 GSCs EC50
Method: (§4) The EC50 value was determined for each compound by fitting the data points according to the following equation: y=Smax+Smin*(x*1/EC50)^n/1+(x*1/EC50)^n where y represents the expected response, x is the chemical compound concentration, S max and S min are the maximum and minimum responses recorded, respectively and n is the Hill coefficient. Curve fitting was performed using Microsoft Excel Solver component.
(§5) Proliferating or quiescent TG1 cells were seeded in 50 μL of their respective media (30 000 and 40 000 viable cells/well, respectively) into 96-well opaque bottom plates (Greiner, Courtaboeuf, France). Compound treatment was performed by adding 50 μL of compound solutions (in the presence of 2% DMSO in culture medium). […] All compounds were tested in triplicate in each experiment. Independent experiments were performed at least twice for almost all of the compounds.

[4] = system: quiescent TG1 GSCs; experiment: ATP-Glo dose-response, quiescent TG1 GSCs; assay type: cell-based, human; details: SAR study, ATP-Glo cell survival assay, 24 h, triplicate; read-out: Quiescent TG1 GSCs EC50
Method: as §4, §5

Row | Compound | Activity on quiescent TG1 GSCs (hit compounds reducing ATP levels) [1] | Activity on proliferating TG1 GSCs (hit compounds reducing ATP levels) [2] | further results
1 | COc1cc(NC(C)CCCN)c2ncccc2c1 (centres unmarked) [Primaquine diphosphate] | yes | yes | 
2 | CCOC1O[C@H]([C@@H](COCc2ccccc2)OCc2ccccc2)[C@H](OCc2ccccc2)[C@H]1O (some centres unmarked) [Tribenoside] | yes | yes | 
3 | CN[C@H]1CC[C@@H](c2ccc(Cl)c(Cl)c2)c2ccccc21 [Sertraline] | yes | yes | 
4 | Cc1cccc(CN2CCN(C(c3ccccc3)c3ccc(Cl)cc3)CC2)c1.Cl.Cl (centres unmarked) [Meclozine dihydrochloride] | yes | yes | 
5 | OC(c1cc(C(F)(F)F)nc2c(C(F)(F)F)cccc12)C1CCCCN1 (centres unmarked) [Mefloquine hydrochloride] | yes | yes | 
6 | CC/C(=C(/CC)c1ccc(O)cc1)c1ccc(O)cc1 [Diethylstilbestrol] | yes | yes | 
7 | CC(C)=C[C@H]1C[C@H](C)[C@]2(CC[C@]3(C)C[C@H]4[C@H](C(=O)C[C@@]4(C)O)/C(C=O)=C\C[C@H]32)O1 [Ophiobolin A] |  |  | cytotoxicity (positive control) ([1]; 1% DMSO, quiescent GSCs): cytotoxic; cytotoxicity (positive control) ([2]; 1% DMSO, proliferating GSCs): cytotoxic
8 | CC[C@H]1CN2CCc3cc(OC)c(OC)cc3[C@@H]2C[C@@H]1C[C@H]1NCCc2cc(O)c(OC)cc21.Cl.Cl.O.O.O.O.O.O.O [Cephaeline dihydrochloride heptahydrate] | yes | yes | 
9 | C[n+]1cc2c3c(ccc2c2ccc4cc5c(cc4c21)OCO5)OCO3 [Sanguinarine] | yes | yes | 
10 | 4-hydroxyphenyl-4-phenyl-(pyridin-2-yl)-methane [Compound 7] |  |  | EC50 [3]: > 100 µM; EC50 [4]: 17.1 ± 6.3 µM
11 | O=C(N/N=C/c1ccc([N+](=O)[O-])o1)c1ccc(O)cc1 [Nitrofuroxazide] | yes | yes | 
12 | Avermectin B1 | yes | yes | 
13 | Clc1ccc(CCC(Cn2ccnc2)Sc2c(Cl)cccc2Cl)cc1 (centres unmarked) [Butoconazole nitrate] | yes | yes | 
14 | CCCCCCCCCCCCCCCC[N+](C)(C)CCN(Cc1ccc(OC)cc1)c1ncccn1 [Thonzonium bromide] | yes | yes | 
15 | Cl.Cl.Fc1ccc(C(OCCN2CCN(CCCc3ccccc3)CC2)c2ccc(F)cc2)cc1 [GBR 12909 dihydrochloride] | yes | yes | 
16 | Clc1ccc(C(Cn2ccnc2)OCc2csc3c(Cl)cccc23)c(Cl)c1 (centres unmarked) [Sertaconazole nitrate] | yes | yes | 
